Measured values reported in patent publication US6673549B1, “Genes expressed in C3A liver cell cultures treated with steroids” (Incyte Corporation, priority 2000, dated 2004).
Values joined by “and” are separate entries in the source; they are usually repeats but may differ in a detail not shown here. Equal entries are not always repeated.

Test system: human C3A liver cells
Experiment: Microarray differential gene expression in human C3A liver cell cultures treated with steroids
Type: cell-based
From the text: Incyte clones represent template sequences derived from the LWESEQ GOLD assembled human sequence database (Incyte Genomics). In cases where more than one clone was available for a particular template, the 5′-most clone in the template was used on the microarray. The HUMAN GENOME GEM series 1-4 microarrays (Incyte Genomics) contain 28,626 array elements which represent 10,068 annotated clusters and 18,558 unannotated clusters. For the UNIGEM series microarrays (Incyte Genomics), Incyte clones were mapped to non-redundant Unigene clusters (Unigene database (build 46), NCBI; Shuler (1997) J Mol Med 75:694-698), and the 5′ clone with the strongest BLAST alignment (at least 90% identity and 100 bp overlap) was chosen, verified, and used in the construction of the microarray. The UNIGEM V microarray (Incyte Genomics) contains 7075 array elements which represent 4610 annotated genes and 2,184 unannotated clusters.
To construct microarrays, cDNAs were amplified from bacterial cells using primers complementary to vector sequences flanking the cDNA insert. […] Amplified cDNAs were then purified using […]-400 columns (APB). Purified cDNAs were immobilized on polymer-coated glass slides. Glass microscope slides (Corning, Corning N.Y.) were cleaned by ultrasound in 0.1% SDS and acetone, with extensive distilled water washes between and after treatments. Glass slides were etched in 4% hydrofluoric acid (VWR Scientific Products, West Chester Pa.), washed thoroughly in distilled water, and coated with 0.05% aminopropyl silane (Sigma Aldrich) in 95% ethanol. Coated slides were cured in a 110° C. oven. cDNAs were applied to the coated glass substrate using a procedure described in U.S. Pat. No. 5,807,522. One microliter of the cDNA at an average concentration of 100 ng/μl was loaded into the open capillary printing element by a high-speed robotic apparatus which then deposited about 5 nl of cDNA per slide.
Microarrays were UV-crosslinked using a […] UV-crosslinker (Stratagene), and then washed at room temperature once in 0.2% SDS and three times in distilled water. Non-specific binding sites were blocked by incubation of microarrays in 0.2% casein in phosphate buffered saline (Tropix, Bedford Mich.) for 30 minutes at 60° C. followed by washes in 0.2% SDS and distilled water as before.
In all cases, mRNA from untreated early confluent C3A cells were prepared in parallel as described below.
Cells were harvested and lysed in 1 ml of TRIZOL reagent (5×10^6 cells/ml; Life Technologies). Lysates were vortexed thoroughly, incubated at room temperature for 2-3 minutes, and extracted with 0.5 ml chloroform. The extract was mixed, incubated at room temperature for 5 minutes, and centrifuged at 15,000 rpm for 15 minutes at 4° C. The aqueous layer was collected, and an equal volume of isopropanol was added. Samples were mixed, incubated at room temperature for 10 minutes, and centrifuged at 15,000 rpm for 20 minutes at 4° C. The supernatant was removed, and the RNA pellet was washed with 1 ml of 70% ethanol, centrifuged at 15,000 rpm at 4° C., and resuspended in RNAse-free water. The concentration of the RNA was determined by measuring the optical density at 260 nm.
Poly(A) RNA was prepared using an OLIGOTEX mRNA kit (Qiagen) with the following modifications: OLIGOTEX beads were washed in tubes instead of on spin columns, resuspended in elution buffer, and then loaded onto spin columns to recover mRNA. To obtain maximum yield, the mRNA was eluted twice.
Each poly(A) RNA sample was reverse transcribed using MMLV reverse-transcriptase, 0.05 pg/μl oligo-d(T) primer (21mer), 1× first strand buffer, 0.03 units/ul RNAse inhibitor, 500 uM dATP, 500 uM dGTP, 500 uM dTTP, 40 uM dCTP, and 40 uM either dCTP-Cy3 or dCTP-Cy5 (APB).

CCCC1O[C@@H]2C[C@H]3[C@@H]4CCC5=CC(=O)C=C[C@]5(C)[C@H]4[C@@H](O)C[C@]3(C)[C@]2(C(=O)CO)O1 (stereo partly drawn) [budesonide] was tested, and the “Ave DE [log2] (C3A treated with steroid)” value (Clone ID 380006) was −1.05 log2, the “Ave DE [log2] (C3A treated with steroid)” value (Clone ID 517374) was 1.04 log2 and the “Ave DE [log2] (C3A treated with steroid)” value (Clone ID 615776) was 1.06 log2. The “Ave DE [log2] (C3A treated with steroid)” value (Clone ID 622565) was 1.20 log2, the “Ave DE [log2] (C3A treated with steroid)” value (Clone ID 654246) was −1.08 log2 and the “Ave DE [log2] (C3A treated with steroid)” value (Clone ID 686993) was 0.51 log2. For the same molecule, the “Ave DE [log2] (C3A treated with steroid)” value (Clone ID 689296) was 1.08 log2 and 1.05 log2, the “Ave DE [log2] (C3A treated with steroid)” value (Clone ID 1401312) was −1.09 log2 and the “Ave DE [log2] (C3A treated with steroid)” value (Clone ID 1604437) was 1.18 log2. For the same molecule, the “Ave DE [log2] (C3A treated with steroid)” value (Clone ID 1611629) was 1.19 log2, the “Ave DE [log2] (C3A treated with steroid)” value (Clone ID 1662870) was −0.93 log2 and the “Ave DE [log2] (C3A treated with steroid)” value (Clone ID 1679595) was 1.10 log2. The “Ave DE [log2] (C3A treated with steroid)” value (Clone ID 1697719) was −0.81 log2, the “Ave DE [log2] (C3A treated with steroid)” value (Clone ID 1716458) was 1.24 log2 and the “Ave DE [log2] (C3A treated with steroid)” value (Clone ID 1798594) was 0.69 log2. The “Ave DE [log2] (C3A treated with steroid)” value (Clone ID 1823946) was −1.10 log2, the “Ave DE [log2] (C3A treated with steroid)” value (Clone ID 1876829) was −1.13 log2 and the “Ave DE [log2] (C3A treated with steroid)” value (Clone ID 1930847) was −1.09 log2. For the same molecule, the “Ave DE [log2] (C3A treated with steroid)” value (Clone ID 1973123) was −1.23 log2, the “Ave DE [log2] (C3A treated with steroid)” value (Clone ID 2057513) was 1.13 log2 and the “Ave DE [log2] (C3A treated with steroid)” value (Clone ID 2078880) was −0.80 log2. For the same molecule, the “Ave DE [log2] (C3A treated with steroid)” value (Clone ID 2170820) was 1.17 log2, the “Ave DE [log2] (C3A treated with steroid)” value (Clone ID 2173973) was 1.08 log2 and the “Ave DE [log2] (C3A treated with steroid)” value (Clone ID 2189061) was 0.15 log2. For the same molecule, the “Ave DE [log2] (C3A treated with steroid)” value (Clone ID 2222155) was 0.58 log2, the “Ave DE [log2] (C3A treated with steroid)” value (Clone ID 2227273) was 1.05 log2 and the “Ave DE [log2] (C3A treated with steroid)” value (Clone ID 2287724) was −1.06 log2. For the same molecule, the “Ave DE [log2] (C3A treated with steroid)” value (Clone ID 2343836) was 0.93 log2, the “Ave DE [log2] (C3A treated with steroid)” value (Clone ID 2404746) was 0.42 log2 and the “Ave DE [log2] (C3A treated with steroid)” value (Clone ID 2482388) was 1.19 log2. For the same molecule, the “Ave DE [log2] (C3A treated with steroid)” value (Clone ID 2660756) was 1.13 log2, the “Ave DE [log2] (C3A treated with steroid)” value (Clone ID 2687356) was 1.26 log2 and the “Ave DE [log2] (C3A treated with steroid)” value (Clone ID 2703282) was −1.01 log2. For the same molecule, the “Ave DE [log2] (C3A treated with steroid)” value (Clone ID 3139631) was −0.97 log2, the “Ave DE [log2] (C3A treated with steroid)” value (Clone ID 3229449) was 0.39 log2 and the “Ave DE [log2] (C3A treated with steroid)” value (Clone ID 3408804) was −1.24 log2. For the same molecule, the “Ave DE [log2] (C3A treated with steroid)” value (Clone ID 3426776) was 0.61 log2, the “Ave DE [log2] (C3A treated with steroid)” value (Clone ID 3449615) was 1.05 log2 and the “Ave DE [log2] (C3A treated with steroid)” value (Clone ID 3497137) was −0.94 log2. For the same molecule, the “Ave DE [log2] (C3A treated with steroid)” value (Clone ID 3687607) was 1.17 log2, the “Ave DE [log2] (C3A treated with steroid)” value (Clone ID 3721985) was −1.10 log2 and the “Ave DE [log2] (C3A treated with steroid)” value (Clone ID 3770530) was −0.98 log2. For the same molecule, the “Ave DE [log2] (C3A treated with steroid)” value (Clone ID 3973687) was 1.31 log2, the “Ave DE [log2] (C3A treated with steroid)” value (Clone ID 4089291) was −1.00 log2 and the “Ave DE [log2] (C3A treated with steroid)” value (Clone ID 4215034) was 1.20 log2. The “Ave DE [log2] (C3A treated with steroid)” value (Clone ID 4252872) was 1.24 log2, the “Ave DE [log2] (C3A treated with steroid)” value (Clone ID 4403805) was 1.12 log2 and the “Ave DE [log2] (C3A treated with steroid)” value (Clone ID 4630674) was 0.97 log2. The “Ave DE [log2] (C3A treated with steroid)” value (Clone ID 4855265) was 1.14 log2, the “Ave DE [log2] (C3A treated with steroid)” value (Clone ID 4863677) was 1.11 log2 and the “Ave DE [log2] (C3A treated with steroid)” value (Clone ID 5038177) was 0.57 log2. The “Ave DE [log2] (C3A treated with steroid)” value (Clone ID 5102951) was 0.84 log2 and the “Ave DE [log2] (C3A treated with steroid)” value (Clone ID 5326983) was 0.94 log2.

With C#C[C@]1(O)CC[C@H]2[C@@H]3CCC4=Cc5oncc5C[C@]4(C)[C@H]3CC[C@@]21C [danazol] the “Ave DE [log2] (C3A treated with steroid)” value (Clone ID 1500810) was −0.41 log2, the “Ave DE [log2] (C3A treated with steroid)” value (Clone ID 2607834) was 0.92 log2 and the “Ave DE [log2] (C3A treated with steroid)” value (Clone ID 5038177) was 0.74 log2.

With C[C@@H]1C[C@H]2[C@@H]3CCC4=CC(=O)C=C[C@]4(C)[C@@]3(F)[C@@H](O)C[C@]2(C)[C@@]1(O)C(=O)CO [dexamethasane] the “Ave DE [log2] (C3A treated with steroid)” value (Clone ID 2253102) was −1.20 log2.
